Measured values: paper PMC6429183, “Identification of Compounds That Inhibit Estrogen-Related Receptor Alpha Signaling Using High-Throughput Screening Assays” (Molecules, 2019)
Several values for one entry are separate records, joined by “and”; a condition that tells them apart may be missing. Equal values may be shown once. Read-outs that look alike come from different tables or passages of the source.

Experiments:
[1] = test system: ERR reporter HEK293 cells; assay: CellTiter-Fluor cell viability assay multiplexed with ERR reporter assay; type: cell-based
Description: (§1) ERR or PGC/ERR reporter HEK293 cells suspended in culture medium without puromycin were dispensed at 2500 cells/5 μL/well in tissue culture–treated 1536-well white assay plates (Greiner Bio-One North America, Monroe, NC, USA) using a Thermo Scientific Multidrop Combi (ThermoFisher Scientific, Inc.). […] After the cells were incubated at 37 °C with 5% CO2 for 6 h, 23 nL of compounds or control, XTC790, was transferred into the assay plates using a Wako Pintool station (Wako Automation, San Diego, CA, USA). The assay plates were incubated at 37 °C for 18 h, followed by the addition of 5 μL ONE-Glo luciferase reagent (Promega, Madison, WI, USA) using a Flying Reagent Dispenser (Aurora Discovery, Carlsbad, CA, USA). After 30 min of incubation at room temperature, the luminescence intensity of the assay plates was quantified using a ViewLux plate reader (PerkinElmer, Shelton, CT, USA). The assays were performed three times for each compound concentration. These ERR and PGC/ERR reporter assays were multiplexed with the CellTiter-Fluor Cell Viability Assay (Promega), a fluorescence-based cell viability assay, to assess compound cytotoxicity.
The qHTS data were analyzed as described previously. […] The DMSO-only compound plates at the beginning and end of the compound plate stack were used to correct the data set by applying an in-house pattern correction algorithm. The half maximum inhibition values (IC50) for each compound and maximum response (efficacy) values were obtained by fitting the concentration-response curves of each compound to a four-parameter Hill equation [91]. […] For each reading, the activity outcome of a test compound was first categorized by the average curve rank from the triplicate runs and the reproducibility calls. The final activity outcome of each compound was based on the ERR antagonist readout activity and cell viability counter screen.

[2] = test system: PGC/ERR reporter HEK293 cells; assay: CellTiter-Fluor cell viability assay multiplexed with PGC/ERR reporter assay; type: cell-based; conditions: for EC50: Homo sapiens
Description: as §1
The qHTS data were analyzed as described previously. Each titration point was normalized relative to the positive control compound (XCT790 = −100%) and DMSO-only wells (0%) according to the following equation: % Activity = [(Vcompound − VDMSO)/(VDMSO − Vpos)] × 100, where Vcompound denotes the compound well values, Vpos denotes the median value of the positive control wells, and VDMSO denotes the median values of the DMSO-only wells. The DMSO-only compound plates at the beginning and end of the compound plate stack were used to correct the data set by applying an in-house pattern correction algorithm. The half maximum inhibition values (IC50) for each compound and maximum response (efficacy) values were obtained by fitting the concentration-response curves of each compound to a four-parameter Hill equation [91]. Compounds were designated as Class 1–4 according to the type of concentration–response curve observed. For each reading, the activity outcome of a test compound was first categorized by the average curve rank from the triplicate runs and the reproducibility calls. The final activity outcome of each compound was based on the ERR antagonist readout activity and cell viability counter screen.

[3] = test system: COX8α; assay: qRT-PCR mRNA expression of ERR downstream gene COX8α; type: cell-based; conditions: 60 nM; ERR reporter cells; vs GAPDH, DMSO = 0%
Description: (§2) Total RNA was isolated from treated ERR reporter cells using an RNeasy Mini Kit (Qiagen, Germantown, MD, USA), homogenized using a QIAshredder (Qiagen), and reverse transcribed with a High-Capacity RNA-to-cDNA™ Kit (ThermoFisher Scientific, Inc.) following the manufacturers’ instructions. Expression of ERRα, COX8α, IDH3α, PPARα, COX4I1, and cytochrome c genes was normalized against GAPDH. All primers were purchased from ThermoFisher Scientific, Inc. Real-time PCR assays were performed in 384-well plates on a QuantStudio 5 (Applied Biosystems, Foster City, CA, USA) with TaqMan™ Gene Expression Master Mix (ThermoFisher Scientific, Inc.). Induction values were calculated using the equation: Fold = 2^ΔΔCt, where ΔCt represents the differences in cycle threshold numbers between each of the target genes and GAPDH, and ΔΔCt represents the relative change in these differences between control and treatment groups. Experimental data are presented as a mean of triplicate determinations ± SD. Statistical comparisons were made by t-test, while the statistical significance was set at p values of <0.05 (light blue), <0.01 (medium blue), and <0.001 (dark blue).

[4] = test system: IDH3α; assay: qRT-PCR mRNA expression of ERR downstream gene IDH3α; type: cell-based; conditions: ERR reporter cells, vs GAPDH, DMSO = 0%
Description: as §2

[5] = test system: PPARα; assay: qRT-PCR mRNA expression of ERR downstream gene PPARα; type: cell-based; conditions: ERR reporter cells, vs GAPDH, DMSO = 0%
[6] = test system: COX4I1; assay: qRT-PCR mRNA expression of ERR downstream gene COX4I1; type: cell-based; conditions: ERR reporter cells, vs GAPDH, DMSO = 0%
Description: as §2, with “Experimental data are presented as a mean of triplicate determinations ± SD. Statistical comparisons were made by t-test, while the statistical significance was set at p values of <0.05 (light blue), <0.01 (medium blue), and <0.001 (dark blue).” left out

[7] = test system: cytochrome c; assay: qRT-PCR mRNA expression of ERR downstream gene cytochrome c; type: cell-based; conditions: ERR reporter cells, vs GAPDH, DMSO = 0%
Description: as §2

[8] = test system: Nrf2/antioxidant response element (ARE); assay: Nrf2/ARE-HepG2 β-lactamase reporter agonist assay; type: cell-based; conditions: agonist mode, heatmap outcome
Description: After the assay plates were incubated at 37 °C for 5–6 h, 23 nL of compounds dissolved in DMSO or positive controls were transferred to the assay plates via a Wako Pintool station (Wako). Except for ARE and p53, all other assays received 1 µL/well agonist (10 nM R1881 for AR; 0.5 and 5 nM β-estradiol for ERα and ERβ respectively; 300 µM CDCA for FXR; 50 nM Rosiglitazone for PPARγ; and 5 nM R5020 for PR) or assay medium using a Flying Reagent Dispenser (FRD). The assay plates were incubated for 16 h (AR, Nrf2/ARE, ERβ, FXR, p53, and PR), 17 h (PPARγ), or 18 h (ERα) at 37 °C, and 1 µL/well LiveBLAzer™ FRET-B/G CCF4-AM substrate (ThermoFisher Scientific, Inc.) detection mix was added using an FRD and the plates were incubated at room temperature for 2 h. […] Data were expressed as the ratio of 460/530 nm emission values.

[9] = biological target: T1, ERRα with PGC-1α (PGC/ERR pathway) (Homo sapiens, UniProt P11474); assay: PGC/ERR reporter (luciferase) qHTS assay, PGC/ERR-HEK293; conditions: for EC50: mean ± SD, triplicate; for PGC/ERR-HEK293 Follow-Up Efficacy: follow-up screen; for PGC/ERR-HEK293 Follow-Up Efficacy / PGC/ERR-HEK293 Primary Efficacy: negative = antagonism, positive = agonism; for activity in the ERR/PGC assay: in words; for PGC/ERR-HEK293 Primary Efficacy: primary qHTS
T1 sequence (P11474 1-423): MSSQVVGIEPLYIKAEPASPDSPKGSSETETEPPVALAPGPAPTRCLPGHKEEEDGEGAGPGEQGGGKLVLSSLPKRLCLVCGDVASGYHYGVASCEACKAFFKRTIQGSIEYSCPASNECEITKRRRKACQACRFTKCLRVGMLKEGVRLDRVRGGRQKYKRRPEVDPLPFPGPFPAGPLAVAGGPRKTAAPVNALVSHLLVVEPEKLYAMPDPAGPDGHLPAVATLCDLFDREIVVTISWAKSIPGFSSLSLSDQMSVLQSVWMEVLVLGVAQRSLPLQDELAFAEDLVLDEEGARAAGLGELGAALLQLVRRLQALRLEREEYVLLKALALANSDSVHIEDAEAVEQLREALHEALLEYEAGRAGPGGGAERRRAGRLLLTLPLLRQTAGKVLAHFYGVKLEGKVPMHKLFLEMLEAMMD
Description: The ERR reporter HEK293 cells were cultured in high glucose DMEM medium (ThermoFisher Scientific, Inc., Waltham, MA, USA) supplemented with 10% fetal bovine serum (FBS; ThermoFisher Scientific, Inc.), 4 mM of L-glutamine (ThermoFisher Scientific, Inc.), 1 mM of sodium pyruvate (ThermoFisher Scientific, Inc.), 100 U/mL of penicillin and 100 mg/mL of streptomycin (ThermoFisher Scientific, Inc.). PGC/ERR reporter HEK293 cells were cultured in the same medium as the ERR reporter HEK293 cells with an additional 1 μg/mL puromycin (ThermoFisher Scientific, Inc.) as the selection marker for PGC-1α expression.
The DMSO-only compound plates at the beginning and end of the compound plate stack were used to correct the data set by applying an in-house pattern correction algorithm [90]. The half maximum inhibition values (IC50) for each compound and maximum response (efficacy) values were obtained by fitting the concentration-response curves of each compound to a four-parameter Hill equation [91]. […] For each reading, the activity outcome of a test compound was first categorized by the average curve rank from the triplicate runs and the reproducibility calls. The final activity outcome of each compound was based on the ERR antagonist readout activity and cell viability counter screen.

[10] = biological target: T2, estrogen-related receptor alpha (ERRα) (Homo sapiens, UniProt P11474); assay: ERR reporter (luciferase) antagonist qHTS assay, ERR-HEK293; conditions: for ERR-HEK293 Follow-Up Efficacy: follow-up screen; for ERR-HEK293 Follow-Up Efficacy / ERR-HEK293 Primary Efficacy: relative to XCT790 = −100%; for ERR-HEK293 Primary Efficacy: primary qHTS, DMSO = 0%
T2 sequence (P11474 1-423): T1 sequence (P11474 1-423)

[11] = Homo sapiens, HEK293, follow-up screen, viability, read-out: ERR-HEK293 Follow-Up Viability EC50 (converted)
[12] = Homo sapiens, HEK293, primary qHTS, viability counter screen, read-out: ERR-HEK293 Primary Viability EC50 (converted)
[13] = HEK293, follow-up screen, read-out: PGC/ERR-HEK293 Follow-Up Viability EC50 (converted)
[14] = HEK293, primary qHTS, read-out: PGC/ERR-HEK293 Primary Viability EC50 (converted)
[15] = PGC/ERR-HEK293 Follow-Up EC50, follow-up screen
[16] = PGC/ERR-HEK293 Primary EC50, primary qHTS, 18 h
[17] = ERR-HEK293 Follow-Up EC50, follow-up (confirmation) screen, mean ± SD, triplicate
[18] = ERR-HEK293 Primary EC50, primary qHTS, 18 h, 15 concentrations, mean ± SD, triplicate

Row | EC50 [9, 15] [nM] | EC50 [9, 16] [nM] | PGC/ERR-HEK293 Follow-Up Efficacy [9] [%] | activity in the ERR/PGC assay [9] | PGC/ERR-HEK293 Primary Efficacy [9] [%] | EC50 [10, 17] [nM] | EC50 [10, 18] [nM] | ERR-HEK293 Follow-Up Efficacy [10] [%] | ERR-HEK293 Primary Efficacy [10] | Compound | EC50 [1, 11] [nM] | EC50 [1, 12] [nM] | EC50 [2, 13] [nM] | EC50 [2, 14] [nM] | activity in the Nrf2-ARE assay [8] | other results
1 | 189 ± 39.6 | 61.5 ± 19.8 | −150 ± 8.02 | antagonism | −121 ± 7.36 | 61.7 ± 7.86 | 55.2 ± 3.74 | −126 ± 10.9 | −107% and −107 ± 2.77% | CC(C)C[C@H](NC(=O)[C@H](CCc1ccccc1)NC(=O)CN1CCOCC1)C(=O)N[C@@H](Cc1ccccc1)C(=O)N[C@@H](CC(C)C)C(=O)[C@@]1(C)CO1 [Carfilzomib] | 274 | 178 | 471 | 1360 | active agonists | Percent inhibition of mRNA gene expression, COX8α [3]: 39.6% and 39.6 ± 1.81%; Percent inhibition of mRNA gene expression, IDH3α ([4]; 60 nM): 1.73 ± 0.76%; Percent inhibition of mRNA gene expression, PPARα ([5]; 60 nM): 7.39 ± 4.61%; Percent inhibition of mRNA gene expression, COX4I1 ([6]; 60 nM): 37.8 ± 5.12%; Percent inhibition of mRNA gene expression, Cytochrome C ([7]; 60 nM): 44.2% and 44.2 ± 0.70%; EC50 ([10]; potency, ERR antagonist assay, primary screen): 55 nM
2 | 10700 ± 2440 | 2100 ± 526 | 89.3 ± 19.5 | agonist activity | 62.9 ± 2.71 | 8120 ± 4420 | 9240 ± 8560 | −88.9 ± 6.62 | −115 ± 6.85% | COc1cc([C@@H]2c3cc4c(cc3[C@@H](O[C@@H]3O[C@@H]5CO[C@@H](C)O[C@H]5[C@H](O)[C@H]3O)[C@H]3COC(=O)[C@H]23)OCO4)cc(OC)c1O [Etoposide] |  | 56300 |  | 56300 | active agonists | ERR-HEK293 Follow-Up Viability EC50 ([1]; follow-up screen, viability): Inactive; PGC/ERR-HEK293 Follow-Up Viability EC50 ([2]; follow-up screen): Inactive; Percent inhibition of mRNA gene expression, IDH3α ([4]; 18 µM): 7.19 ± 23.5%; Percent inhibition of mRNA gene expression, Cytochrome C ([7]; 18 µM): 6.55 ± 3.18%; activity in the ERR assay ([10]; in words): antagonistic activity
3 | 9.62 ± 4.52 | 16.9 ± 5.54 | −116 ± 12.7 | antagonism | −92.2 ± 11.8 | 16.7 ± 6.08 | 17 ± 7.81 | −125 ± 11.0 |  | CC(C)C[C@H](NC(=O)[C@H](Cc1ccccc1)NC(=O)c1cnccn1)B(O)O [Bortezomib] | 78 | 65.6 | 64.3 | 62.8 | active agonists | IC50 ([1]; Homo sapiens, HEK293, primary screen, concurrent with ERR antagonist assay): ~66 nM; Percent inhibition of mRNA gene expression, IDH3α ([4]; 20 µM): 17.6% and 17.6 ± 4.66%; Percent inhibition of mRNA gene expression, PPARα ([5]; 20 µM): 14.0 ± 5.17%; Percent inhibition of mRNA gene expression, COX4I1 ([6]; 20 µM): 35.3 ± 3.49%; Percent inhibition of mRNA gene expression, Cytochrome C ([7]; 20 µM): 48.3% and 48.3 ± 1.92%
